Measured values as given in publication PMC9879382 (Prostaglandins & other lipid mediators, 2022).
Where two headings read alike, the source gives them in different places.

Columns and labels:
human sEH = target: T1, human sEH (Homo sapiens, UniProt P34913); assay: sEH inhibition assay; assay type: biochemical; conditions: CMNPC 5 μM, pH 7.4, 30 °C
T1 sequence (P34913 1-555): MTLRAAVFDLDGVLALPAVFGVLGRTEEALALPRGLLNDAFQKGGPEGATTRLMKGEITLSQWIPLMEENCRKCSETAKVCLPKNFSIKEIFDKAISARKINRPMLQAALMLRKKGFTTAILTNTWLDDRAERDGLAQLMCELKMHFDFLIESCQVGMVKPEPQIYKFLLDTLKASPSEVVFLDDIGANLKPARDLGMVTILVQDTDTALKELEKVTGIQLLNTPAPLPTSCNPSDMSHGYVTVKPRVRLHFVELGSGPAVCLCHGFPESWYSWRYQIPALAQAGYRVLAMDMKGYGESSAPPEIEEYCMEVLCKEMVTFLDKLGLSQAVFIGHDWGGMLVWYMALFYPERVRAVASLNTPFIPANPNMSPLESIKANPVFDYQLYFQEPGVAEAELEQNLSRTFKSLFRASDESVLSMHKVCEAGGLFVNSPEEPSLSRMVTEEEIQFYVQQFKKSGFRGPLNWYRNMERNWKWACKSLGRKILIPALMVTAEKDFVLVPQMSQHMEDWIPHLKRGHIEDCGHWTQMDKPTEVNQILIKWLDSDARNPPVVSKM

rat sEH = target: T2, rat sEH (Rattus norvegicus, UniProt P80299); assay: sEH inhibition assay; assay type: biochemical
T2 sequence (P80299 1-554): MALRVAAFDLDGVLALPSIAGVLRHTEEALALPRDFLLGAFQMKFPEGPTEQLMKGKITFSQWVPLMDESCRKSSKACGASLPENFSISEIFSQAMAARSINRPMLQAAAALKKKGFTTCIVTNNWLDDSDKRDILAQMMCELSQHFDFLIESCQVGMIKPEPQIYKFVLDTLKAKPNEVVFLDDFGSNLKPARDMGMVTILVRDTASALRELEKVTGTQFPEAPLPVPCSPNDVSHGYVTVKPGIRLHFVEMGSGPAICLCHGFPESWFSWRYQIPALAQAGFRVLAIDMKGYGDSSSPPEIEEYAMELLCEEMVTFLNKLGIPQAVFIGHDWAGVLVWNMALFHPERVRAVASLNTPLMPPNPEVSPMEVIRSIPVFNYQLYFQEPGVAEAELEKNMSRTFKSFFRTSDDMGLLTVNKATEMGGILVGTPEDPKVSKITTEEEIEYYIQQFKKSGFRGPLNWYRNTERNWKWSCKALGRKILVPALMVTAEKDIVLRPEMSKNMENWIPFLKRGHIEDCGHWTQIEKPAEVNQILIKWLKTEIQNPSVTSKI

mouse sEH = target: T3, mouse sEH (Mus musculus, UniProt P34914); assay: sEH inhibition assay; assay type: biochemical
T3 sequence (P34914 1-554): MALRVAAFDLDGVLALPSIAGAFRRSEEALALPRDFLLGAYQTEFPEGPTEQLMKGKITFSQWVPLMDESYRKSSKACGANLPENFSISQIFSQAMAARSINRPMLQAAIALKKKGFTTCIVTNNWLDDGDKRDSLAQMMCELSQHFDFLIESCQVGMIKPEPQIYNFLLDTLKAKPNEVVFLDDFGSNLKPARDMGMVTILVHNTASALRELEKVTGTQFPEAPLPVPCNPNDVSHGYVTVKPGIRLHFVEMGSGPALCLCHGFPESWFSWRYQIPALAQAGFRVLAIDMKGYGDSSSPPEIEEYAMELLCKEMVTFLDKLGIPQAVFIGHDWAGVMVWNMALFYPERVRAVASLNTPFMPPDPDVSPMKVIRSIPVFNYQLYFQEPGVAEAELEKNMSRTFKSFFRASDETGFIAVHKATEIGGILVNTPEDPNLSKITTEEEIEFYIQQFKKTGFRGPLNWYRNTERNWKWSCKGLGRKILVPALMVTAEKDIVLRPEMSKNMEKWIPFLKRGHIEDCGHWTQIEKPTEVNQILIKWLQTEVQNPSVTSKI

human FAAH = target: T4, human FAAH (Homo sapiens, UniProt O00519); assay: FAAH inhibition assay; assay type: biochemical; conditions: OMP 50 μM, pH 8, 37 °C
T4 sequence (O00519 1-579): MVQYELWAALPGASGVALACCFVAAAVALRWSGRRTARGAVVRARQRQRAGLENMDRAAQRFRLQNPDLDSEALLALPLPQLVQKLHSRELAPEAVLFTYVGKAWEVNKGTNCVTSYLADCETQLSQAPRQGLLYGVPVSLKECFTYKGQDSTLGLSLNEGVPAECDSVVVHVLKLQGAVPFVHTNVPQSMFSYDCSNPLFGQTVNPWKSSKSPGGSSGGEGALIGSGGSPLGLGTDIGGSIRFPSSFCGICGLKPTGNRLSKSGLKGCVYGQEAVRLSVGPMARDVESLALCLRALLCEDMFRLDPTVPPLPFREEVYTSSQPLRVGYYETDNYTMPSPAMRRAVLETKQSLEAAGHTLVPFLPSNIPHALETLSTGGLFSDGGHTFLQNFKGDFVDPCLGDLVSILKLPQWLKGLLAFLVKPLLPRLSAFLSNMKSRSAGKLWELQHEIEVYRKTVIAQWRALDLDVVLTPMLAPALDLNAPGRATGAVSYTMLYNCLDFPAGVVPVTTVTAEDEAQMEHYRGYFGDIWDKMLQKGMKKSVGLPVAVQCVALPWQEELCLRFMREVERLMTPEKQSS

[1] = Microsomal liver stability assay, human; assay type: in vitro ADME; conditions: pH 7.4
[2] = Microsomal liver stability assay, mouse; assay type: in vitro ADME; conditions: pH 7.4
[3] = Microsomal liver stability assay, rat; assay type: in vitro ADME; conditions: both, pH 7.4
[4] = Human sEH IC50, human recombinant sEH
[5] = Human FAAH IC50, human recombinant FAAH
[6] = read-out: Rat sEH IC50, rat sEH, CMNPC 5 μM, pH 7.4, 30 °C

| SMILES | IC50 (human sEH; [4]) [nM] | IC50 (rat sEH) [nM] | IC50 (mouse sEH) [nM] | IC50 (human FAAH; [5]) [µM] | also measured |
| --- | --- | --- | --- | --- | --- |
| O=C(Nc1ccc(-c2nc3ccccc3s2)cc1)C1CCN(S(=O)(=O)c2c(Cl)cc(Br)cc2Cl)CC1 [Compound 7k, N-(4-(benzo[d]thiazol-2-yl)phenyl)-1-((4-bromo-2,6-dichlorophenyl)sulfonyl)piperidine-4-carboxamide] | 41 | 42.5 | 1790 | 0.0897 |  |
| O=C(Nc1ccc(-c2nc3ccccc3s2)cc1)C1CCN(S(=O)(=O)c2cccc(C(F)(F)F)c2)CC1 [Compound 7c, N-(4-(benzo[d]thiazol-2-yl)phenyl)-1-((3-(trifluoromethyl)phenyl)sulfonyl)piperidine-4-carboxamide] | 89.3 | 124 | 4310 | 0.0223 |  |
| O=C(Nc1ccc(-c2nc3ccccc3s2)cc1)C1CCN(S(=O)(=O)c2ccc([N+](=O)[O-])cc2)CC1 [Compound 7e, N-(4-(benzo[d]thiazol-2-yl)phenyl)-1-((4-nitrophenyl)sulfonyl)piperidine-4-carboxamide] |  | 4480 | > 10000 |  |  |
| O=C(Nc1ccc(-c2nc3ccccc3s2)cc1)C1CCN(S(=O)(=O)c2cc(C(F)(F)F)cc(C(F)(F)F)c2)CC1 [Compound 7j, N-(4-(benzo[d]thiazol-2-yl)phenyl)-1-((3,5-bis(trifluoromethyl)phenyl)sulfonyl)piperidine-4-carboxamide] | 4840 | 2910 | > 10000 | 0.0419 |  |
| O=C(Nc1ccc(-c2nc3ccccc3s2)cc1)C1CCN(S(=O)(=O)c2ccc(C(F)(F)F)cc2)CC1 [Compound 7d, N-(4-(benzo[d]thiazol-2-yl)phenyl)-1-((4-(trifluoromethyl)phenyl)sulfonyl)piperidine-4-carboxamide] | 51.5 | 28.9 | 9180 | 0.0481 |  |
| O=C(Nc1ccc(-c2nc3ccccc3s2)cc1)C1CCN(S(=O)(=O)c2ccc(F)cc2Br)CC1 [Compound 7h, N-(4-(benzo[d]thiazol-2-yl)phenyl)-1-((2-bromo-4-fluorophenyl)sulfonyl)piperidine-4-carboxamide] | 8.2 | 11.8 | 402 | 0.0289 |  |
| C[C@]12CC[C@H]3[C@@H](CCC4=CC(=O)CC[C@@]43C)[C@@H]1CC[C@@H]2O [Testosterone (control), testosterone, reference compound] |  |  |  |  | microsomal CLint at 1 μM ([1]; microsomes): 61 µL/min/mg; microsomal CLint at 1 μM ([2]; microsomes): 280 µL/min/mg; half-life at 1 μM ([3]; microsomes): 1.1 min; microsomal CLint at 1 μM ([3]; microsomes): 1250 µL/min/mg |
| N#Cc1ccccc1S(=O)(=O)N1CCC(C(=O)Nc2ccc(-c3nc4ccccc4s3)cc2)CC1 [Compound 7b, N-(4-(benzo[d]thiazol-2-yl)phenyl)-1-((2-cyanophenyl)sulfonyl)piperidine-4-carboxamide] | 19.5 | 185 | 578 | 0.287 |  |
| O=C(Nc1ccc(-c2nc3ccccc3s2)cc1)C1CCN(S(=O)(=O)c2ccc(C(F)(F)F)cc2Cl)CC1 [Compound 7g, N-(4-(benzo[d]thiazol-2-yl)phenyl)-1-((2-chloro-4-(trifluoromethyl)phenyl)sulfonyl) piperidine-4-carboxamide] |  |  |  |  | IC50 (human sEH; read-out: Human sEH IC50, human recombinant sEH): 432 nM; IC50 (rat sEH; [6]): 859 nM; IC50 (mouse sEH; read-out: Mouse sEH IC50, mouse sEH, CMNPC 5 μM, pH 7.4, 30 °C): 9060 nM; IC50 (human FAAH; read-out: Human FAAH IC50, human recombinant FAAH): 0.0266 µM |
| O=C(Nc1ccc(OC(F)(F)F)cc1)NC1CCC(Oc2ccc(C(=O)O)cc2)CC1 (stereo not shown) [t-TUCB, reference compound] |  |  |  |  | IC50 (rat sEH; [6]): 9.3 nM |
| O=C(Nc1ccc(-c2nc3ccccc3s2)cc1)C1CCN(S(=O)(=O)c2ccccc2C(F)(F)F)CC1 [Compound 7a, N-(4-(benzo[d]thiazol-2-yl)phenyl)-1-((2-(trifluoromethyl)phenyl)sulfonyl)piperidine-4-carboxamide] | 3.1 | 5.7 | 7210 | 0.0097 | half-life at 1 μM ([1]; human liver microsomes): 24 min; microsomal CLint at 1 μM ([1]; human liver microsomes): 57 µL/min/mg; half-life at 1 μM ([2]; mouse liver microsomes): 15.8 min; microsomal CLint at 1 μM ([2]; mouse liver microsomes): 87 µL/min/mg; half-life at 1 μM ([3]; rat liver microsomes): 14.7 min; microsomal CLint at 1 μM ([3]; rat liver microsomes): 94 µL/min/mg |
| O=C(Nc1ccc(-c2nc3ccccc3s2)cc1)C1CCN(S(=O)(=O)c2ccc(F)cc2Cl)CC1 [Compound 7f, N-(4-(benzo[d]thiazol-2-yl)phenyl)-1-((2-chloro-4-fluorophenyl)sulfonyl)piperidine-4-carboxamide] | 16.9 | 116 | 267 | 0.0191 |  |
